Assay results from patent US12691102B2, “Composition for preventing or treating chronic kidney disease, comprising compound that induces expression of anti-aging gene klotho” (KLOTHO SCIENCES, priority 2021, dated 2026).

Columns and labels:
klotho (KL) gene [1] = assay: Quantitative evaluation of klotho (KL) gene expression level using real-time PCR in RPTEC cells; format: cell-based, human; conditions: treated for 6 hours, FIG. 4
Description: For RNA extraction from RPTEC cells, which are epithelial cells of the proximal tubule of the human kidneys, treated with the compounds of Comparative Example 1 and Examples 1 and 2 for 6 hours, an RNeasy kit from Qiagen Inc. was used. The results of preparing cDNA from extracted RNA using a Superscript II kit from Thermo Fisher Scientific, Inc. and performing the quantitative evaluation using Taqman Gene Expression assays from Applied Biosystems as a klotho (KL) gene-specific kit are illustrated in FIG. 4.

[2] = system: promoter of the human klotho gene; assay: Luciferase expression experiment, reporter gene pHKP-luc (promoter up to -2.1 kb upstream of human klotho gene) in RPTECs; format: cell-based
Description: (§1) In order to evaluate whether the klotho gene was expressed by the evaluation of luciferase activity, human renal proximal tubule epithelial cells (RPTECs) (ATCC CRL-4031), which are epithelial cells of the proximal tubule of the human kidneys, were purchased from Lonza, USA and used.
(§2) For culturing, a Renal Epithelial Growth Medium (REGM™) Bullet kit, also manufactured by the same Lonza company, was used, and the cells were cultured under conditions of 37° C. and 5% CO2. As a plasmid for luciferase expression, a plasmid in which the promoter site of a human KL (klotho) gene was disposed to regulate the expression of a firefly luciferase gene was used.
The plasmid was incorporated into cells using an X-treme GENE transfection reagent from Roche. The activity of luciferase expressed in cells was measured using a Dual-Luciferase reporter assay system manufactured by Promega. After the cultured cells were treated with each compound at an indicated concentration for 24 hours, the activity of luciferase was measured. It is indirectly shown that the expression of the klotho gene may be increased when the activity of luciferase is high.
The results of confirming the expression of a reporter gene by treating RPTECs, which are epithelial cells of the proximal tubule of the human kidneys, with Examples 1 to 6 at concentrations of 0.5, 1 and 5 μM and Comparative Example 1 at a concentration of 5 μM and using a reporter gene (pHKP-luc) including a promoter included up to −2.1 kb upstream of the human klotho gene are illustrated in FIGS. 2 and 3.

[3] = system: unilateral ureter obstruction model; assay: Unilateral ureter obstruction (UUO) model; format: in vivo; conditions: mice, 20 mg/kg/day into the abdominal cavity
Description: In a unilateral ureter obstruction model, 5-week-old male […] mice were used. After the right ureter was tied with a thread to create a unilateral ureter obstruction model, the KS1 compound (20 mg/kg/day) was injected into the abdominal cavity daily starting 24 hours later. After that, samples were collected by sacrificing the mice on days 7 and 14 and tested (FIG. 8A). H&E staining was performed to investigate changes in the nucleus and cytoplasm in the unilateral ureter obstruction model, and the results are illustrated in FIG. 9. […] In addition, Sirius Red staining was performed to investigate the change according to the progress of fibrosis in the unilateral ureter obstruction model. […] TUNEL staining was performed to investigate the degree of apoptosis in the unilateral ureter obstruction model.

[4] = system: human kidney-2 (HK2) cells; assay: Toxicity test (EZ-Cytox) in HK2 cells; format: cell-based; conditions: 12.5 μM or 25 μM, 24 hours, FIG. 6
Description: Cultured human kidney-2 (HK2) cells were treated with Comparative Example 1, Example 2 and Examples 9 to 10 at a concentration of 25 μM or 12.5 μM, and after 24 hours, cytotoxicity was measured using an EZ-Cytox kit.

klotho (KL) gene [5] = assay: Quantitative evaluation of klotho (KL) gene expression level using general PCR in RPTEC cells; format: cell-based, human; conditions: 2.5 μM, 6 hours, FIG. 5
Description: After RPTEC cells, which are epithelial cells of the proximal tubule of the human kidneys, were each treated with the compounds of Examples 7 to 10 at 2.5 μM for 6 hours, RNA was extracted from the cells, and cDNA was prepared from the extracted RNA using a Superscript II kit from Thermo Fisher Scientific, Inc., and then general PCR was performed.
Information on the primers used in the experiment is as follows. • KL-F […] (SEQ ID NO: 1) • KL-R […] (SEQ ID NO: 2) • GAPDH-F […] (SEQ ID NO: 3) • GAPDH-R […] (SEQ ID NO: 4)
The DNA amplified by PCR was confirmed by staining with ethidium bromide after electrophoresis on an agarose gel, and the amounts of DNA in the band were quantitatively compared using the SPEedyQuant program, and are illustrated in FIG. 5.

klotho protein = assay: Klotho protein expression level in cisplatin-treated HK-2 cells; format: cell-based, human; conditions: FIG. 7B
Description: As in the protocol in FIG. 7A, a disease model was made by treating HK-2 cells (human renal cells) with cisplatin (20 μM), and then treated with a KS1 compound (Example 10) (3 μM). After 24 hours, the expression degree of the klotho protein was confirmed by obtaining the cells.

[6] = system: chronic kidney disease model; assay: Chronic kidney disease model (db/db mice, high protein diet); format: in vivo; conditions: oral gavage daily 2, 10, 50 mg/kg
Source text: For the chronic kidney disease model, 20 db/m mice (10 5-week-old mice, 10 6-week-old mice) and 50 db/db mice (25 5-week-old mice and 25 6-week-old mice) were imported from Jackson Lab, USA, and after the adaptation period, the experiment was started (mouse model number JAX 000642-BKS.Cg-Dock7m+/+Leprdb/j5W/M Wildtype for Dock7m, BKS.Cg-Dock7m+/+Leprdb/j 5W/M Heterozygous for Dock7m). Each group was divided into set1 and set2 due to the large number of mice, with 5-week-old mice as set2, and the experiment was conducted one week later so that all mice were in the experiment from 6 weeks of age. After measuring the body weight, the mice were evenly distributed in each group and fed a normal diet (ND) and a high protein diet (HPD). After 3 weeks on the high protein diet, 2-hour urine samples were collected via a metabolic cage for analysis. […] After 12 weeks of drug administration, mice were sacrificed, and blood and organs were obtained for hematology and tissue analysis. Urine analysis was performed at SCL healthcare center, and blood analysis was performed using I-STAT cartridge (CHEM 8+).
The animals were anesthetized with anesthetic and perfusion-fixed with fixative (Periodate-Lysine-2% paraformaldehyde) through the heart for 8 minutes. Additional fixation was performed at 4° C. for 16 hours or more in the same fixative. After undergoing a dehydration process through an alcohol series, the tissue slides were prepared by embedding in wax and then cutting to 5 μm. After the tissue was hydrated again through the hydration process, it was immersed in a citric acid solution of pH 6 and heated to retrieve the aldehyde-fixed protein. Endogenous peroxidase was then blocked by treatment with 1.7% H2O2 in methanol for 30 minutes, followed by treatment with 0.5% triton X-100 in PBS for 15 minutes to increase the penetration of the antibody. […] Using more than 100 photographs for each group, the expressed areas were quantified using a color image analyzer (TDI Scope Eye version 3.6 for windows; Olympus, Japan) (FIG. 14). […]

[7] = system: promoter of the human klotho gene; assay: Luciferase expression experiment, human klotho promoter reporter (1.7 kbp or 240 bp) in RPTEC cells; format: cell-based; conditions: 5 μM, 24 hours, promoter 1.7 kbp or 240 bp, among Comparative Examples 1 to 4, FIG. 1
Description: as §1, §2
The plasmid was incorporated into cells using an X-treme GENE transfection reagent from Roche. The activity of luciferase expressed in cells was measured using a Dual-Luciferase reporter assay system manufactured by Promega. After the cultured cells were treated with each compound at an indicated concentration for 24 hours, the activity of luciferase was measured. It is indirectly shown that the expression of the klotho gene may be increased when the activity of luciferase is high. […]

[8] = RPTECs, Examples at 0.5, 1 and 5 μM, Comparative Example 1 at 5 μM, FIG. 2

Q: For Cc1ccc2oc(Nc3ccc(Cl)c(Cl)c3)nc2c1 [Example 2], which “klotho (KL) gene mRNA expression level (real-time PCR)” value (klotho (KL) gene [1]) is on record?
A: The value was “at a level similar to that of Comparative Example 1”.

Q: What about the “expression of the reporter gene (pHKP-luc)” value (“expression … (pHKP-luc)” for short) ([2]; RPTEC cells, 5 μM, FIG. 3) of the same compound?
A: The value was “at a level similar to that of Comparative Example 1”.

Q: What about the “expression … (pHKP-luc)” value [2, 8] of the same compound?
A: The value was “at a level similar to that of Comparative Example 1”.

Q: For O=C(Nc1nc2ccccc2o1)c1ccc([N+](=O)[O-])cc1Cl [Example 1, N-(benzo[d]oxazol-2-yl)-2-chloro-4-nitrobenzamide], which “expression … (pHKP-luc)” value [2, 8] is on record?
A: The value was “at a level similar to that of Comparative Example 1”.

Q: For Fc1ccc(Nc2nc3ccccc3o2)cc1F [Example 10, N-(3,4-difluorophenyl)benzo[d]oxazol-2-amine], which “renal hypertrophy (kidney size)” value ([3]; FIG. 8B) is on record?
A: The value was “no difference in size”.

Q: And the “nuclear and cytoplasmic changes, tissue destruction (H&E staining)” value ([3]; one-week and two-week samples, FIG. 9)?
A: Its value is “a large reduction in tissue destruction”.

Q: What about the klotho protein expression ([3]; one-week sample, FIG. 12) of the same compound?
A: The klotho protein expression was “increased”.

Q: And the “fibrosis (Sirius Red staining)” value ([3]; vs UUO model not treated, FIG. 10)?
A: Its value is “fibrosis occurred less”.

Q: And the “apoptosis (TUNEL staining)” value ([3]; vs UUO model not treated, FIG. 11)?
A: The value was “remarkably reduced”.

Q: And the “MMP-9 protein expression level (inflammation marker)” value ([3]; week 1 and week 2, FIG. 13)?
A: Its value is “remarkably reduced”.

Q: And the “improvement of toxicity compared to Comparative Example 1” value [4]?
A: Its value is at least 20%.

Q: And the “toxicity (cytotoxicity, EZ-Cytox)” value [4]?
A: The value was “the least toxicity”.

Q: And the “expression level of the klotho (KL) gene, relative to the level of Comparative Example 1” value (klotho (KL) gene [5])?
A: Its value is “about 10 times”.

Q: What about the “expression of the klotho protein” value (klotho protein; HK-2 cells, cisplatin (20 μM) disease model, then 3 μM compound, 24 hours) of the same compound?
A: The value was “increased”.

Q: And the “expression of klotho protein (immunohistochemistry, kidney)” value ([6]; 12 weeks, FIG. 14, 15)?
A: The value was “statistically significantly (p<0.05) increased”.

Q: And the “blood urea nitrogen (BUN)” value ([6]; 12 weeks, FIG. 17)?
A: Its value is “statistically significant (p<0.05) decrease”.

Q: What about the “microalbumin level in urine (in proportion to creatinine)” value ([6]; FIG. 16) of the same compound?
A: The value was “statistically significant (p<0.05) decrease”.

Q: N.N.[Cl][Pt][Cl] [cisplatin, reference compound] was tested. Which “expression of the klotho protein” value (klotho protein; HK-2 cells treated with cisplatin (20 μM) alone) did it give?
A: The value was “decreased”.

Q: Which “luciferase activity (klotho promoter reporter)” value [7] does the source give for O=C(Nc1ccccc1Cl)c1c[nH]c2ccccc12 [Comparative Example 1, N-(2-chlorophenyl)-1H-indole-3-carboxamide] here?
A: The value was “the highest”.
